Where two headings read alike, the source gives them in different places.
Tests used:
RBL-2H3 cells [1] = experiment: Inhibition of mast cell degranulation (β-hexosaminidase release); type: cell-based, rat; details: for IC50: RBL-2H3 cells sensitized with anti-DNP IgE, triggered with DNP-HSA, 1 h preincubation
Source text: Mast cells are key effector cells involved in allergic and inflammatory diseases, and the Rat Basophilic Leukemia clone 2H3 (RBL-2H3) cell line is a commonly used model of allergen dependent immune modulator release (degranulation) in mast cells. On their surface, they express the high affinity receptor for IgE (FcεRI). Upon binding of antigen-specific IgE to the receptor, cells become sensitized to the IgE specific antigen (allergen). When IgE-sensitized cells then encounter multivalent antigen, the antigen clusters IgE-FcεRI complexes and initiates a signal transduction cascade that leads to degranulation, that is, the release of inflammatory mediators, such as cytokines, eicosanoids, histamine and enzymes. The assay can be used as a screening method to identify immune-modulating compounds, in particular compounds useful in the medical management of allergic and inflammatory diseases and asthma, β-hexosaminidase was previously shown to be released with the same kinetics as histamine (Schwartz et al., J Immunology; 123:1445-1450 (1979)), thus offering a simple means to monitor degranulation. The RBL-2H3 cell line has been successfully used to identify compounds with anti-allergic activity (Choo et al. Planta Med., 69:518-522 (2003)).
Cell Culture: RBL-2H3 cells obtained from the German Collection of Microorganisms and Cell Cultures (ACC312) (Braunschweig, Germany) were maintained in 70% Minimum Essential Medium with Earle's Salts, 20% RPMI 1640 Medium, 10% FBS and 2 mM l-glutamine in 95% air/5% CO2 at 37° C. and routinely checked for mycoplasma contamination. Cells were passaged every 3-4 days; after washing cells once with 35 ml PBS cells were incubated 8 min with 5 ml 0.05% Trypsin-EDTA solution at 37° C. Cells were removed from the incubator, 15 ml culture medium was added and cells were resuspended by repeated pipetting.
Cell seeding: cells were harvested with Trypsin-EDTA as described and 50-100 μl cell suspension seeded Into Costar CellBind 24 well cluster plates (no. 3337). Plates were kept for 30 min at RT under the sterile hood before being transferred to the incubator. Cells were used within one or two days after seeding.
For sensitization, cells for immediate use were sensitized 6-12 h after plating; cells to be used the following day were sensitized 26-38 h after plating. Culture plates were removed from the incubator and checked for cell growth and contamination. The medium was discarded and cells were sensitized with anti-DNP IgE (0.4 μg/ml) in 0.4 ml culture medium overnight. Following overnight sensitization, cells were washed with 0.8 ml pre-warmed TyB and 0.38 ml test compound or vehicle control (supplemented or not with 1% FBS) were added to duplicate wells. Samples were adjusted to contain 1% vehicle for test compounds dissolved in organic solvents. Cells were incubated for 1 h at 37° C. At the end of the incubation period, cells were routinely stimulated with 20 μl DNP-HSA (2 μg/ml; final concentration 0.1 μg/ml) diluted in TyB and cells were incubated for 15 min at 37° C. Alternatively, cells were stimulated with 20 μl […] (final concentration 0.25 μM) or 20 nM […] (final concentration 0.25 μM), both in the absence or presence of 20 nM PMA (final concentration).
Plates were removed from the incubator and immediately centrifuged at 4° C. for 5 min at 250×g and transferred to an ice bath. Aliquots of supernatants, 25 μl, were transferred to 96-well plates. Remaining supernatant was aspirated from control wells and cells were lysed in […] lysis buffer for 5 min at RT on an orbital shaker at 450 rpm under non-sterile conditions. After lysis, 25 μl aliquots of lysates were transferred to 96-well plates.
MUG substrate solution, 100 μl, were added to supernatant and lysate samples and plates were incubated 30 min at 37° C. The reaction was terminated by addition of 150 μl stop solution. Fluorescence was measured at 365 nm excitation and 440 nm emission wavelengths. […]

RBL-2H3 cells [2] = experiment: Maximum tolerated concentration (cytotoxicity by lactate dehydrogenase release); type: cell-based, rat
Source text: A commercially available cytotoxicity test was used (Promega Cytotox-One cat. #67891).
The safety index (SI) of a test compound Is the ratio between the maximum tolerated concentration and the 1C50 and is used as a measure of the relative safety of the test compound.

[3] = highest concentration not causing cytotoxicity, LDH release
[4] = ratio between maximum tolerated concentration and IC50
[5] = Rattus norvegicus, 25 μM, RBL-2H3 cells

| Compound | IC50 (RBL-2H3 cells [1]; Rattus norvegicus) [µM] | MTC (maximum tolerated concentration) (RBL-2H3 cells [2]; [3]) [µM] | SI (safety index, ratio MTC/IC50) (RBL-2H3 cells [2]; [4]) | IC50 (RBL-2H3 cells [1]) [µM] | other results |
| --- | --- | --- | --- | --- | --- |
| CCCCCCCCCCCC[N+](C)(C)CCS(=O)(=O)[O-] [Compound 1r, 2-(N,N-Dimethyldodecylammonio)Ethanesulfonate] | 4.2 | 200 | 47.6 | – | – |
| CCCCCCCCCCCCCCCC[N+](C)(C)CCCS(=O)(=O)[O-] [Compound 1h, 3-(N,N-dimethyIpalmitylammonio)propansulfonate] | – | – | – | 3.7 | MTC (maximum tolerated concentration) (RBL-2H3 cells [2]): 50 µM; SI (safety index, ratio MTC/IC50) (RBL-2H3 cells [2]): 13.5 |
| CCCCCCCCCCCCCC[N+](C)(C)CCS(=O)(=O)[O-] [Compound 1d, 2-(N,N-Dimethyltetradecylammonio)Ethanesulfonate] | 3.9 | 100 | 25.6 | – | – |
| CCCCCCCCCCCC[N+](C)(C)CCC(=O)[O-] [Compound 1m, 3-(Dimethyl(Dodecyl)Ammonio)Propanoate] | – | 100 | – | – | inhibition at 25 µM (RBL-2H3 cells [1]; [5]): 73% |
| CCCCCCCCCCCC[N+](C)(C)CCCP(=O)(O)O [Compound 1t, 3-(N,N-Dimethyldodecylammonio)Propylphosphonic Acid] | – | 200 | 32.8 | 6.1 | – |
| CCCCCCCCCCCCCCN(C)CCCS(=O)(=O)O [Compound 1b, 3-(N-Methyltetracylammonio)Propanesulfonate] | – | – | – | 4.3 | MTC (maximum tolerated concentration) (RBL-2H3 cells [2]): 100 µM; SI (safety index, ratio MTC/IC50) (RBL-2H3 cells [2]): 23.3 |
| CCCCCCCCCCCCCCN(C)CCCP(=O)(O)O [Compound 1u, 3-(N-Methyl-N-Tetradecylamino)Propylphosphonic Acid (Betaine)] | – | 200 | 33.9 | 5.9 | – |
| CCCCCCCCCCCC[N+](C)(C)CC(=O)[O-] [Compound 1p, N-Dodecyl-N,N-Dimethylglycine] | – | – | – | – | Inhibition of degranulation: % inhibition at 25 μM (RBL-2H3 cells [1]; 25 μM, RBL-2H3 cells): 50%; MTC (maximum tolerated concentration) (RBL-2H3 cells [2]): 100 µM |
| CCCCCCCCCCCCN(C)CCS(=O)(=O)O [Compound 1q, 2-(N-Methyldodecylammonio)Ethanesulfonate] | 8.8 | 200 | 22.7 | – | – |
| CCCCCCCCCCCCCC[N+](C)(C)CC(CC)CS(=O)(=O)[O-] (centres unmarked) [Compound 1f, 2-((Dimethyl(Tetradecyl)Ammonio)Methyl)Butane-1-Sulfonate] | 4 | 75 | 18.8 | – | – |
| CCCCCCCCCCCCCCCC[N+]1(CCCS(=O)(=O)[O-])CCC(O)CC1 (centres unmarked) [Compound 2b, 1-Hexadecyl-1-(3-Sulfonatopropyl)-4-Hydroxypiperidinium] | 4.3 | 50 | 11.6 | – | – |
| CCCCCCCCCCCCCCCCOP(=O)([O-])OCC[N+](C)(C)C [Miltefosine, reference compound] | 4.2 | – | – | – | MTC (maximum tolerated concentration) (RBL-2H3 cells [2]; rat): 25 µM; SI (safety index, ratio MTC/IC50) (RBL-2H3 cells [2]; rat): 6.0 |
| CCCCCCCCCCCCCC[N+](C)(C)CCCCS(=O)(=O)[O-] [Compound 1e, 4-(N1N-Dimethylmyristylammonio)Butanesulfonate] | – | – | – | 3.7 | MTC (maximum tolerated concentration) (RBL-2H3 cells [2]): 150 µM; SI (safety index, ratio MTC/IC50) (RBL-2H3 cells [2]): 40.5 |
| Br.CCCCCCCCCCCCCCCCN(C)CCCP(=O)(OCC)OCC [Compound 1w, 3-(N-Methyl-N—Hexadecylamino)Propylphosphonic Acid Diethylester Hydrobromide] | 6.9 | 200 | 29.0 | – | – |
| Br.CCCCCCCCCCCCCCN(C)CCCP(=O)(OCC)OCC [Compound 1x, 3-(N-Methyl-N-Tetradecylamino)Propylphosphonic Acid Diethyiester Hydrobromide] | – | 100 | 18.2 | 5.5 | – |
| CCCCCCCCCCCCCCN(C)CCS(=O)(=O)O [Compound 1s, 2-(N-Methyltetradecylammonio)Ethanesulfonate] | 5.6 | 100 | 17.9 | – | – |
| CCCCCCCCCCCC[N+](C)(C)CCCS(=O)(=O)[O-] [Compound 1i, 3-(N,N-dimethyldodecyl-ammonio) propanesulfonate] | – | – | – | 4.1 | MTC (maximum tolerated concentration) (RBL-2H3 cells [2]): 200 µM; SI (safety index, ratio MTC/IC50) (RBL-2H3 cells [2]): 48.8 |
| CCCCCCCCCCCCCCCCN(C)CCCP(=O)(O)O [Compound 1v, 3-(N-Methyl-N—Hexadecylamino)Propylphosphonic Acid] | 8.8 | 200 | 22.7 | – | – |
| CCCCCCCCCCCCCCCC[N+]1(CCCS(=O)(=O)[O-])CCCCC1 [Compound 2a, N—Hexadecyl-N-(3-Sulfonatopropyl)Piperidinium] | 4.5 | 50 | 11.1 | – | – |
| CCCCCCCCCCCCCCCCCC[N+](C)(C)CCCS(=O)(=O)[O-] [Compound 1g, 3-(N,N-Dimethyloctadecylammonio)Propanesulfonate] | 9.5 | 50 | 5.3 | – | – |
| CCCCCCCCCCCCCC[N+](C)(C)CCCC(=O)[O-] [Compound 1o, 4-(Dimethyl(Tetradecyl)Ammonio)Butanoate] | – | 100 | – | – | inhibition at 25 µM (RBL-2H3 cells [1]; [5]): 65% |
| CCCCCCCCCCCCCC[N+](C)(C)CC(=O)[O-] [Compound 1j, N-Tetradecyl-N,N-Dimethylglycine] | – | 75 | 14.7 | 5.1 | – |
| CCCCCCCCCCCCCC[N+](C)(C)CCC(=O)[O-] [Compound 1k, 3-(Dimethyl(Tetradecyl)Ammonio)Propanoate] | 5.3 | 100 | 18.9 | – | – |
| CCCCCCCCCCCCCCN(C)CCCC(=O)O [Compound 1n, 4-(Methyl(Tetradecyl)Ammonio)Butanoate] | 8 | 100 | 12.5 | – | – |
| CCCCCCCCCCCCCC[N@+]1(CCCS(=O)(=O)[O-])CCC[C@H](C(=O)N(CC)CC)C1 (racemic) [Compound 2c, Trans-N-Tetradecyl-N-(3-Sulfonatopropyl)-3-Diethylaminocarbonyl-Piperidinium] | – | 100 | – | – | inhibition at 25 µM (RBL-2H3 cells [1]; [5]): 50% |

From US10829506B2, “Amino- or ammonium-containing sulfonic acid, phosphonic acid and carboxylic acid derivatives and their medical use” (GRI Bio, Inc., priority 2011, dated 2020)
